Reference: ChEMBL document CHEMBL1795229, “Vasorelaxant effects of macrocyclic bis(bibenzyls) from liverworts” (Bioorg Med Chem, 2011)
pIC50: −log10 of the molar value. Active and inactive are the calls of the source. No cut-off for these calls is given here.

How the values were obtained:
Aorta [1] = assay: Vasorelaxant activity in Wistar rat endothelium-intact aortic rings assessed as inhibition of phenylephrine-induced contractions at 30 uM after 10 to 30 mins; assay type: functional, tissue-based
Aorta [2] = assay: Vasorelaxant activity in Wistar rat endothelium-intact aortic rings assessed as inhibition of phenylephrine-induced contractions after 10 to 30 mins; assay type: functional, tissue-based
Aorta [3] = assay: Vasorelaxant activity in Wistar rat endothelium-intact aortic rings assessed as inhibition of phenylephrine-induced contractions after 10 to 60 mins; assay type: functional, tissue-based
Aorta [4] = assay: Vasorelaxant activity in Wistar rat endothelium-intact aortic rings assessed as inhibition of phenylephrine-induced contractions at 10 to 100 uM; assay type: functional, tissue-based; details: TDE = time-dependent effect
Aorta [5] = assay: Vasorelaxant activity in Wistar rat endothelium-intact aortic rings assessed as inhibition of phenylephrine-induced contractions at 10 to 100 uM after 10 to 60 mins; assay type: functional
Aorta [6] = assay: Vasorelaxant activity in Wistar rat endothelium-denuded aortic rings assessed as inhibition of phenylephrine-induced contractions at 10 to 100 uM after 10 to 60 mins; assay type: functional
Aorta [7] = assay: Vasorelaxant activity in Wistar rat endothelium-denuded aortic rings assessed as inhibition of phenylephrine-induced contractions at 10 to 100 uM; assay type: functional, tissue-based; details: TDE = time-dependent effect
Aorta [8] = assay: Vasorelaxant activity in Wistar rat endothelium-denuded aortic rings assessed as inhibition of phenylephrine-induced contractions presence of 1 mM of potassium channel inhibitor TEA; assay type: functional, tissue-based
Aorta [9] = assay: Vasorelaxant activity in Wistar rat endothelium-denuded aortic rings assessed as inhibition of calcium chloride-induced contractions in calcium-free potassium-rich medium at 30 uM; assay type: functional, tissue-based
Aorta [10] = assay: Vasorelaxant activity in Wistar rat endothelium-denuded aortic rings assessed as inhibition of phenylephrine-induced contractions in calcium-free medium at 30 uM pretreated with nicardipine; assay type: functional, tissue-based
Aorta [11] = assay: Vasorelaxant activity in Wistar rat aortic rings assessed as inhibition of phenylephrine-induced contractions at 10 to 100 uM after 10 to 60 mins in presence of 100 uM of NO synthase inhibitor L-NMMA; assay type: functional, tissue-based

Compound	inhibition (Aorta [1])	inhibition (Aorta [3])	inhibition (Aorta [4])	inhibition (INH) (Aorta [5]) [%]	other results
COC1Cc2cccc(c2)Oc2c(O)cccc2CCc2ccc(cc2)Oc2cc1cc(O)c2O (configuration not stated)	Active	–	–	–	–
COc1cc(CCc2cccc(Oc3c(O)cccc3CCc3ccc(O)cc3)c2)cc(O)c1O	Active	–	–	–	–
COc1cc2cc(c1OC)Oc1ccc(cc1)CCc1ccc(OC)c(OC)c1Oc1cccc(c1)CC2	Active	–	–	–	–
COc1ccc2c(c1)CCc1ccc(OC)c(c1)-c1cc(ccc1OC)CCc1ccc-2c(OC)c1	Active	–	–	–	–
COc1cccc(CCc2ccc(O)c(Oc3ccc(CCc4cccc(O)c4)cc3)c2)c1	Active	–	–	–	–
COc1cccc2c1Oc1cccc(c1)CCc1cc(OC)c(OC)c(c1)Oc1ccc(cc1)CC2	Active	–	–	–	–
Oc1cc2cc(c1O)Oc1ccc(cc1)CCc1ccc(O)c(O)c1Oc1cccc(c1)CC2	Active	–	–	–	–
Oc1cc2cc(c1O)Oc1ccc(cc1)CCc1cccc(O)c1Oc1cccc(c1)CC2	Active	–	–	–	–
Oc1ccc(CCc2cccc(O)c2O)cc1Oc1ccc(CCc2cccc(O)c2O)cc1	Active	–	–	–	–
Oc1ccc2c(c1)/C=C/c1ccc(O)c(c1)Oc1ccc(cc1)CCc1cccc(c1)O2	Active	–	–	–	–
Oc1ccc2c(c1)CCc1ccc(O)c(c1)-c1cc(ccc1O)/C=C\c1cccc(c1)O2	Active	–	–	–	–
Oc1ccc2c(c1)CCc1ccc(cc1)Oc1cc(cc(-c3cc4cc(c3O)Oc3ccc(cc3)CCc3cc(O)ccc3-c3ccc(cc3O)CC4)c1O)CCc1ccc-2c(O)c1	Active	–	–	–	–
Oc1ccc2cc1Oc1ccc(cc1)CCc1cccc(c1)Oc1c(O)cccc1CC2	Active	–	–	–	–
CC(=O)OCC[N+](C)(C)C [ACETYLCHOLINE]	–	–	–	–	pIC50 (Aorta [2]): 6.00
Oc1ccc2cc1-c1cc(ccc1O)CCc1c(ccc(O)c1O)Oc1cccc(c1)/C=C\2 [ISOPLAGIOCHIN B]	Active	Dose-dependent effect	tde	>60	inhibition (INH) (Aorta [6]): >80%; inhibition (Aorta [7]): tde; inhibition (Aorta [8]): inactive; inhibition (Aorta [9]): inactive; inhibition (Aorta [10]): Active
Oc1ccc2c(c1)CCc1ccc(O)c(c1)-c1cc(ccc1O)CCc1ccc-2c(O)c1 [ISOPLAGIOCHIN D]	Active	Dose-dependent effect	tde	>60	inhibition (INH) (Aorta [6]): >80%; inhibition (Aorta [7]): tde; inhibition (Aorta [8]): Active; inhibition (Aorta [9]): Active; inhibition (Aorta [10]): Active
Oc1cccc(CCc2ccc(Oc3cc(CCc4cccc(O)c4)cc(O)c3O)cc2)c1 [PERROTETTIN F]	Active	Dose-dependent effect	tde	>60	inhibition (INH) (Aorta [6]): >80%; inhibition (Aorta [7]): tde; inhibition (Aorta [8]): Active; inhibition (Aorta [9]): Active; inhibition (Aorta [10]): Active
COc1cc2c(cc1O)-c1ccc(O)cc1CCc1cc(O)c(O)c(c1)Oc1ccc(cc1)CC2 [PLAGIOCHIN A]	Active	Dose-dependent effect	tde	>60	inhibition (Aorta [6]): inactive; inhibition (Aorta [11]): inactive
Oc1ccc2c(c1)CCc1ccc(cc1)Oc1cc(ccc1O)CCc1ccc-2c(O)c1 [RICCARDI C]	Active	Dose-dependent effect	tde	>60	inhibition (Aorta [6]): inactive
COc1ccc2cc1Oc1ccc(cc1)CCc1cc(O)ccc1-c1ccc(cc1O)CC2 [RICCARDI F]	Active	Dose-dependent effect	tde	>60	inhibition (Aorta [6]): inactive
COc1ccc2c(c1)CCc1ccc(cc1)Oc1cc(ccc1O)CCc1ccc-2c(O)c1 [RICCARDIN A]	Active	Dose-dependent effect	tde	>60	inhibition (Aorta [6]): inactive
